According to the supplement of paper PMC4862054:

Legend:
Details in all cases: incubation time: 72 h
BT-474 [1] = assay: normalised response (% of control), CellTox Green; higher = less cell death (100 = DMSO, 0 = benzethonium chloride kill control)
In short: (§1)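 In 384-well plates holding compound at 5 concentrations in 10-fold steps over a 10,000-fold range specific to each compound, breast cancer cell lines were seeded as 20 µl suspension and incubated 72 h. CellTox Green fluorescence was measured at 485/520 nm, after which CellTiter-Glo luminescence was measured following 10 min at room temperature. Plate signals were normalised to 0.1 % DMSO (100) and a positive kill control (0), and each value is the normalised signal at a single concentration.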

BT-549 [2] = assay: as above
In short: as §1

CAL-120 [3] = assay: as above
In short: as §1

CAL-148 [4] = assay: as above
In short: as §1

CAL-51 [5] = assay: as above
In short: as §1

CAL-85-1 [6] = assay: as above
In short: as §1

DU-4475 [7] = assay: as above
In short: as §1

HCC1143 [8] = assay: as above
In short: as §1

HCC1599 [9] = assay: as above
In short: as §1

HCC1937 [10] = assay: as above
In short: as §1

HDQ-P1 [11] = assay: as above
In short: as §1

Hs578T [12] = assay: as above
In short: as §1

MCF-10A [13] = assay: as above
In short: as §1

MDA-MB-231 [14] = assay: as above
In short: as §1

MDA-MB-436 [15] = assay: as above
In short: as §1

MDA-MB-453 [16] = assay: as above
In short: as §1

MDA-MB-468 [17] = assay: as above
In short: as §1

MFM-223 [18] = assay: as above
In short: as §1

BT-474 [19] = assay: normalised response (% of control), CellTiter-Glo; higher = more viable cells (100 = DMSO, 0 = benzethonium chloride kill control)
Protocol: (§2)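 DSRT, 72 h incubation, CellTox Green / CellTiter-Glo readout. Signal is normalised to DMSO and benzethonium chloride controls. Value is the normalised response at dose 3.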

BT-549 [20] = assay: as above
Protocol: as §2

CAL-120 [21] = assay: as above
Protocol: as §2

CAL-148 [22] = assay: as above
Protocol: as §2

CAL-51 [23] = assay: as above
Protocol: as §2

CAL-85-1 [24] = assay: as above
Protocol: as §2

DU-4475 [25] = assay: as above
Protocol: as §2

HCC1143 [26] = assay: as above
Protocol: as §2

HCC1599 [27] = assay: as above
Protocol: as §2

HCC1937 [28] = assay: as above
Protocol: as §2

HDQ-P1 [29] = assay: as above
Protocol: as §2

MCF-10A [30] = assay: as above
Protocol: as §2

MDA-MB-231 [31] = assay: as above
Protocol: as §2

MDA-MB-436 [32] = assay: as above
Protocol: as §2

MDA-MB-453 [33] = assay: as above
Protocol: as §2

MDA-MB-468 [34] = assay: as above
Protocol: as §2

MFM-223 [35] = assay: as above
Protocol: as §2

SK-BR-3 [36] = assay: as above
Protocol: as §2

BT-474 [37] = assay: as above; remark: listed apart in the source
Protocol: (§3)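 DSRT, 72 h incubation, CellTox Green / CellTiter-Glo readout. Signal is normalised to DMSO and benzethonium chloride controls. Value is the normalised response at the highest dose.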

BT-549 [38] = assay: as above; remark: listed apart in the source
Protocol: as §3

CAL-120 [39] = assay: as above; remark: listed apart in the source
Protocol: as §3

CAL-148 [40] = assay: as above; remark: listed apart in the source
Protocol: as §3

CAL-51 [41] = assay: as above; remark: listed apart in the source
Protocol: as §3

CAL-85-1 [42] = assay: as above; remark: listed apart in the source
Protocol: as §3

DU-4475 [43] = assay: as above; remark: listed apart in the source
Protocol: as §3

HCC1143 [44] = assay: as above; remark: listed apart in the source
Protocol: as §3

HCC1599 [45] = assay: as above; remark: listed apart in the source
Protocol: as §3

HCC1937 [46] = assay: as above; remark: listed apart in the source
Protocol: as §3

HDQ-P1 [47] = assay: as above; remark: listed apart in the source
Protocol: as §3

Hs578T [48] = assay: as above
Protocol: as §3

MCF-10A [49] = assay: as above; remark: listed apart in the source
Protocol: as §3

MDA-MB-231 [50] = assay: as above; remark: listed apart in the source
Protocol: as §3

MDA-MB-436 [51] = assay: as above; remark: listed apart in the source
Protocol: as §3

MDA-MB-453 [52] = assay: as above; remark: listed apart in the source
Protocol: as §3

MDA-MB-468 [53] = assay: as above; remark: listed apart in the source
Protocol: as §3

MFM-223 [54] = assay: as above; remark: listed apart in the source
Protocol: as §3

SK-BR-3 [55] = assay: as above; remark: listed apart in the source
Protocol: as §3

Cn1c(=O)n(-c2ccc(C(C)(C)C#N)cc2)c2c3cc(-c4cnc5ccccc5c4)ccc3ncc21 [Dactolisib] (10 nM)
normalised response (BT-474 [1]): 101% | normalised response (BT-549 [2]): 110% | normalised response (CAL-120 [3]): 98.7% | normalised response (CAL-148 [4]): 103% | normalised response (CAL-51 [5]): 113% | normalised response (CAL-85-1 [6]): 101% | normalised response (DU-4475 [7]): 104% | normalised response (HCC1143 [8]): 55.5% | normalised response (HCC1599 [9]): 115% | normalised response (HCC1937 [10]): 122% | normalised response (HDQ-P1 [11]): 116% | normalised response (Hs578T [12]): 116% | normalised response (MCF-10A [13]): 108% | normalised response (MDA-MB-231 [14]): 120% | normalised response (MDA-MB-436 [15]): 102% | normalised response (MDA-MB-453 [16]): 108% | normalised response (MDA-MB-468 [17]): 130% | normalised response (MFM-223 [18]): 104% | normalised response (BT-474 [19]): 80.5% | normalised response (BT-549 [20]): 61.5% | normalised response (CAL-120 [21]): 62.1% | normalised response (CAL-148 [22]): 88.5% | normalised response (CAL-51 [23]): 68.4% | normalised response (CAL-85-1 [24]): 62.9% | normalised response (DU-4475 [25]): 96.3% | normalised response (HCC1143 [26]): 78% | normalised response (HCC1599 [27]): 97.5% | normalised response (HCC1937 [28]): 85.5% | normalised response (HDQ-P1 [29]): 80.1% | normalised response (MCF-10A [30]): 99.8% | normalised response (MDA-MB-231 [31]): 80.3% | normalised response (MDA-MB-436 [32]): 65.9% | normalised response (MDA-MB-453 [33]): 75.9% | normalised response (MDA-MB-468 [34]): 84.3% | normalised response (MFM-223 [35]): 83.8% | normalised response (SK-BR-3 [36]): 73.6%

CN1CCN(CCOc2cc(OC3CCOCC3)c3c(Nc4c(Cl)ccc5c4OCO5)ncnc3c2)CC1 [Saracatinib] (10000 nM)
normalised response (BT-474 [1]): 42% | normalised response (BT-549 [2]): 86.2% | normalised response (CAL-120 [3]): 94.5% | normalised response (CAL-148 [4]): 68.4% | normalised response (CAL-51 [5]): 58% | normalised response (CAL-85-1 [6]): 29.9% | normalised response (DU-4475 [7]): 95.5% | normalised response (HCC1143 [8]): 96.4% | normalised response (HCC1599 [9]): 76.6% | normalised response (HCC1937 [10]): 81.7% | normalised response (HDQ-P1 [11]): 68.9% | normalised response (Hs578T [12]): 59.7% | normalised response (MCF-10A [13]): 87.1% | normalised response (MDA-MB-231 [14]): 51.3% | normalised response (MDA-MB-453 [16]): 79% | normalised response (MDA-MB-468 [17]): 125% | normalised response (MFM-223 [18]): 90.4% | normalised response (BT-474 [37]): 55% | normalised response (BT-549 [38]): 57.8% | normalised response (CAL-120 [39]): 66.3% | normalised response (CAL-148 [40]): 75.2% | normalised response (CAL-51 [41]): 59.8% | normalised response (CAL-85-1 [42]): 27.9% | normalised response (DU-4475 [43]): 106% | normalised response (HCC1143 [44]): 67.1% | normalised response (HCC1599 [45]): 19.4% | normalised response (HCC1937 [46]): 56% | normalised response (HDQ-P1 [47]): 34.6% | normalised response (Hs578T [48]): 64.8% | normalised response (MCF-10A [49]): 21.4% | normalised response (MDA-MB-231 [50]): 47.5% | normalised response (MDA-MB-436 [51]): 83% | normalised response (MDA-MB-453 [52]): 63.1% | normalised response (MDA-MB-468 [53]): 67.5% | normalised response (MFM-223 [54]): 64.9% | normalised response (SK-BR-3 [55]): 46.9%
